Laboratory results published in patent publication US8614179B2, “Antibacterial combination therapy for the treatment of gram positive bacterial infections” (E-Therapeutics PLC, priority 2008, dated 2013).

Tested on: MRSA
Assay: microbe, parasite or virus in culture
Format: cell-based
Details: Staphylococcus aureus
Protocol: In example experiments miconazole nitrate, econazole nitrate and clotrimazole were dissolved in DMSO. Colistin, D-cycloserine, fosfomycin and polymixin B were dissolved in water. Nisin was suspended at 10 mg/mL in 0.02 M HCl, and the supernatant fraction following centrifugation at 10,000 g for 10 mins was used in the following experiments.
Other solvents that may be used include caster oil, pyridine, and 0.9% saline. For IV administration agents may be solubilised in polyethoxylated caster oil, or cyclodextrins such as sulfobutylether7-βcyclodextrin or hydroxypropyl-β-cyclodextrin and lactic acid. Minimum inhibitory concentrations (MICs) of a range of clinical and control bacterial organisms were measured according to BSAC (British Society for Antimicrobial Chemotherapy) guidelines (Andrews 2001), for single agents. The method of determining MICs of imidazole with colistin, D-cycloserine, fosfomycin, polymixin B, or nisin is described briefly as follows. MICs were measured by agar dilution. Kill curves were performed in accordance with the methods of Garrison and Nuemiller, 2007. Briefly kill profiles were generated by logarithmically plotting mean CFU/mL data over time. Total logarithmic reductions in bacterial counts were determined by subtracting 24 h CFU/mL values from starting inocula.
Stock solutions were prepared at concentrations of 1000 mg/L and 100 mg/L. To determine the MIC of miconazole, the appropriate amount of each stock solution were added to separate Petri dishes give a range of final concentrations (after the addition of 20 mL molten agar): from 0.12 to 32 mg/L. To determine the MICs of miconazole with the specific agent active on a bacterial cell surface, these concentrations of miconazole were used in addition to a fixed sub-inhibitory amount of the agent active on a bacterial cell surface. […] Volumes (20 mL) of cooled molten IST agar (oxoid) was added to each Petri dish and mixed by swirling. After drying, the plates were stored at 4° C. and protected from light. Plates were used on the day of preparation.
The test organisms were grown overnight in 5 mL IST broth. Using a dilution in 0.9% saline of 1:100, the appropriate agar plates were inoculated using a multipoint inoculator.
Agar plates and microtitre plates were incubated at 37° C. in air for 18-20 hours.
The MIC is the minimum amount of an antibiotic at which there is no visible growth of bacteria. Tiny single colonies or faint hazes were not counted as growth. Synergy was reported if the inhibitory effect of the drugs in combination were greater than the sum of the inhibitory effects of each drug singly. The concentration of miconazole, with or without the cell membrane or cell wall active agent, capable of inhibiting the growth of 50% and 90% of the strains tested is reported as the MIC50 and MIC90 respectively. The range of MICs for each group of bacterial strains is also reported.

Structure (SMILES): Clc1ccc(COC(Cn2ccnc2)c2ccc(Cl)cc2Cl)c(Cl)c1 (stereo not shown) [Miconazole, 1-[2-(2,4-Dichlorophenyl)-2-[(2,4-dichlorophenyl)methoxy]ethyl]-1H-imidazole]
- MIC (Table 4, strain LF10, agents singly or miconazole MIC with 2.5 mg/L nisin): 2 µg/mL
- MIC (Table 4, strain LF11, agents singly or miconazole MIC with 2.5 mg/L nisin): 2 µg/mL
- MIC (Table 4, strain LF12, agents singly or miconazole MIC with 2.5 mg/L nisin): 2 µg/mL
- MIC (Table 4, strain LF13, agents singly or miconazole MIC with 2.5 mg/L nisin): 2 µg/mL
- MIC (Table 4, strain LF14, agents singly or miconazole MIC with 2.5 mg/L nisin): 2 µg/mL
- MIC (Table 4, strain LF15, agents singly or miconazole MIC with 2.5 mg/L nisin): 2 µg/mL
- MIC (Table 4, strain LF16, agents singly or miconazole MIC with 2.5 mg/L nisin): 2 µg/mL
- MIC (Table 4, strain LF17, agents singly or miconazole MIC with 2.5 mg/L nisin): 2 µg/mL
- MIC (Table 4, strain LF18, agents singly or miconazole MIC with 2.5 mg/L nisin): 1 µg/mL
- MIC (Table 4, strain LF19, agents singly or miconazole MIC with 2.5 mg/L nisin): 2 µg/mL
- MIC (Table 4, strain PF 15a 009521M ST22 EMRSA, agents singly or miconazole MIC with 2.5 mg/L nisin): 1 µg/mL
- MIC (Table 4, strain PF 16a 00923R EMRSA 16, agents singly or miconazole MIC with 2.5 mg/L nisin): 2 µg/mL
- MIC (Table 4, strain PF 99b 983237K BERIAN CLONE, agents singly or miconazole MIC with 2.5 mg/L nisin): 2 µg/mL
- MIC (Table 4, strain PF 116a 981695K, agents singly or miconazole MIC with 2.5 mg/L nisin): 2 µg/mL
- MIC (Table 4, strain PF 153a 026225E, agents singly or miconazole MIC with 2.5 mg/L nisin): 0.5 µg/mL
- MIC (Table 4, strain S113 MRSA, agents singly or miconazole MIC with 2.5 mg/L nisin): 2 µg/mL
